This is an account of results in patent US12264163B2, “Compounds and methods for treating fibrotic pathologies” (Mayo Foundation for Medical Education and Research, priority 2019, dated 2025).

The test system of one assay is αSMA. Description: αSMA intensity (fibroblast activation) in IPF patient-derived lung fibroblasts + TGFβ, dopaminergic agonist library. It is filed as cell-based, human. The following applies: 1 μM + TGFβ, 72 hours. Here is the method: (§1) Media was then exchanged for the indicated conditions for each experiment. […] Cells or tissue sections were incubated overnight with mouse monoclonal antibody against αSMA (Sigma-Aldrich F3777), and/or a rabbit monoclonal antibody against YAP/TAZ (Cell Signaling D24E4) diluted 1:200 in PBS with 1% BSA. Cells were then washed and exposed to flourescence-conjugated secondary antibodies (Invitrogen) diluted 1:1000 and DAPI (Thermo Fisher Scientific). Images were taken with a Cytation5 (BioTek) microscope. For scoring αSMA positive cells (FIG. 12), an observer blinded to the treatment conditions counted αSMA-positive cells using a visual threshold for bright fibrous staining; a minimum of 200 cells was counted for each condition. YAP/TAZ localization was quantified (FIGS. 6-10, 24-26, and 29-30) using Gen5 (Biotek) software. Images were taken at 4× magnification of both DAPI and YAP/TAZ staining. […] Quantification of double positive (YAP/TAZ and αSMA) cells from lung tissue sections (FIG. 17-21) was performed similarly; however separate thresholds were established for both YAP/TAZ and αSMA. A minimum of 4000 cells was quantified for each mouse.

The subject of another assay is YAP/TAZ. As to the kind of experiment: YAP/TAZ nuclear localization in IPF patient-derived lung fibroblasts treated with dopaminergic agonists. In kind it is cell-based, human. The settings on record: 10 μM, 2 hours. Here is the method:
IPF patient-derived lung fibroblasts cells treated 2 hours prior to fixation with diverse dopaminergic agonists (10 μM). N=4 different patient samples. % nuclear localization of YAP/TAZ was determined using automated imaging software. Scale bar represents 100 μm.
as §1

Structures can show the parent of a compound that is named as a salt.

In the case of `CCCN(CCc1ccccc1)C1CCc2c(O)cccc2C1.Cl` (racemic) [(±)-2-(N-phenylethyl-N-propyl)amino-5-hydroxytetralin], the “αSMA intensity (% of DMSO control)” value is reported as 65.43 % of DMSO control in the assay with αSMA (IPF-1 patient fibroblasts), 52.77 % of DMSO control in the assay with αSMA (IPF-2 patient fibroblasts), 60.4844 % of DMSO control with αSMA (IPF-3 patient fibroblasts) and 51.1 % of DMSO control in the assay with αSMA (IPF-4 patient fibroblasts). Further, the “Nuclear localization (% of total cells)” value was 68.85 % of total cells in the assay with YAP/TAZ (IPF-1 patient fibroblasts), 60.86 % of total cells with YAP/TAZ (IPF-2 patient fibroblasts), 68 % of total cells in the assay with YAP/TAZ (IPF-3 patient fibroblasts) and 56.552 % of total cells in the assay on YAP/TAZ (IPF-4 patient fibroblasts).
`CCCN1CCO[C@@H]2c3cc(O)ccc3OC[C@H]21.Cl` (racemic) [(±)-PD 128,907•HCl, (±)-PD 128,907]: the “αSMA intensity (% of DMSO control)” value is listed as 83.68 % of DMSO control in the assay on αSMA (IPF-1 patient fibroblasts), 85.45 % of DMSO control with αSMA (IPF-2 patient fibroblasts), 94.2538 % of DMSO control with αSMA (IPF-3 patient fibroblasts) and 75.15 % of DMSO control with αSMA (IPF-4 patient fibroblasts). Also, the “Nuclear localization (% of total cells)” value in the assay on YAP/TAZ (IPF-1 patient fibroblasts) is 60.13 % of total cells; in the assay on YAP/TAZ (IPF-2 patient fibroblasts) it was 49.54 % of total cells; in the assay with YAP/TAZ (IPF-3 patient fibroblasts) it was 78.48 % of total cells; in the assay on YAP/TAZ (IPF-4 patient fibroblasts), 60.66 % of total cells.
On to `Br.C=CCN1CCc2c(cc(O)c(O)c2Cl)C(c2ccccc2)C1` (racemic) [(±)-SKF-82958•HBr, (±)-SKF-82958], for which the “αSMA intensity (% of DMSO control)” value with αSMA (IPF-1 patient fibroblasts) is recorded as 11.78 % of DMSO control; with αSMA (IPF-2 patient fibroblasts), 4.966 % of DMSO control; in the assay on αSMA (IPF-3 patient fibroblasts), 2.428 % of DMSO control; in the assay on αSMA (IPF-4 patient fibroblasts) it was 9.326 % of DMSO control. Also, the “Nuclear localization (% of total cells)” value was 29.15 % of total cells with YAP/TAZ (IPF-1 patient fibroblasts), 38 % of total cells with YAP/TAZ (IPF-2 patient fibroblasts), 38 % of total cells in the assay with YAP/TAZ (IPF-3 patient fibroblasts) and 12.29 % of total cells in the assay with YAP/TAZ (IPF-4 patient fibroblasts).
Consider `NCCc1ccc(O)cc1` [4-Hydroxyphenethylamine•HCl, 4-Hydroxyphenethylamine], for which the “Nuclear localization (% of total cells)” value with YAP/TAZ (IPF-1 patient fibroblasts) is 56.52 % of total cells; in the assay on YAP/TAZ (IPF-2 patient fibroblasts), 45.69 % of total cells; in the assay with YAP/TAZ (IPF-3 patient fibroblasts), 76.57 % of total cells; with YAP/TAZ (IPF-4 patient fibroblasts), 43.3719 % of total cells.
Turning to `Br.NC1CCc2cc(O)c(O)cc2C1` (stereo not drawn) [6,7-ADTN•HBr, 6,7-ADTN], the “αSMA intensity (% of DMSO control)” value with αSMA (IPF-1 patient fibroblasts) is on record as 37.14 % of DMSO control; in the assay on αSMA (IPF-2 patient fibroblasts), 4.182 % of DMSO control; with αSMA (IPF-3 patient fibroblasts), 9.909 % of DMSO control; with αSMA (IPF-4 patient fibroblasts), 4.888 % of DMSO control. Also, the “Nuclear localization (% of total cells)” value with YAP/TAZ (IPF-1 patient fibroblasts) is recorded as 43.89 % of total cells; in the assay with YAP/TAZ (IPF-2 patient fibroblasts), 44 % of total cells; with YAP/TAZ (IPF-3 patient fibroblasts), 65.5 % of total cells; with YAP/TAZ (IPF-4 patient fibroblasts), 52.65 % of total cells.
As for `CCCN(CCC)[C@@H]1CCc2c(OC)cccc2[C@@H]1C.O=C(O)/C=C/C(=O)O` [(+)-UH 232 maleate, (+)-UH 232], the “αSMA intensity (% of DMSO control)” value in the assay on αSMA (IPF-1 patient fibroblasts) is given as 82.91 % of DMSO control; in the assay with αSMA (IPF-2 patient fibroblasts), 63.85 % of DMSO control; with αSMA (IPF-3 patient fibroblasts) it was 85.81 % of DMSO control; in the assay with αSMA (IPF-4 patient fibroblasts), 65.71 % of DMSO control. In addition, the “Nuclear localization (% of total cells)” value is given as 61.9521 % of total cells with YAP/TAZ (IPF-1 patient fibroblasts), 68 % of total cells in the assay on YAP/TAZ (IPF-2 patient fibroblasts), 71.85 % of total cells with YAP/TAZ (IPF-3 patient fibroblasts) and 67.27 % of total cells with YAP/TAZ (IPF-4 patient fibroblasts).
For the compound `NC[C@@H]1O[C@H](C23CC4CC(CC(C4)C2)C3)Cc2c1ccc(O)c2O` [A-77636•HCl•H2O, A-77636], the “αSMA intensity (% of DMSO control)” value in the assay with αSMA (IPF-1 patient fibroblasts) is on record as 5.808 % of DMSO control; with αSMA (IPF-2 patient fibroblasts) it was 0.7188 % of DMSO control; in the assay on αSMA (IPF-3 patient fibroblasts) it was 0.06766 % of DMSO control; with αSMA (IPF-4 patient fibroblasts), 12.43 % of DMSO control. Further, the “Nuclear localization (% of total cells)” value is reported as 26.46 % of total cells with YAP/TAZ (IPF-1 patient fibroblasts), 30.88 % of total cells in the assay with YAP/TAZ (IPF-2 patient fibroblasts), 41.33 % of total cells with YAP/TAZ (IPF-3 patient fibroblasts) and 37.79 % of total cells in the assay with YAP/TAZ (IPF-4 patient fibroblasts).
As to `C=CCN1CCc2nc(N)sc2CC1.Cl.Cl` [B-HT 920•2HCl, B-HT 920], the “αSMA intensity (% of DMSO control)” value is on record as 74.98 % of DMSO control in the assay on αSMA (IPF-1 patient fibroblasts), 58.97 % of DMSO control in the assay on αSMA (IPF-2 patient fibroblasts), 70.12 % of DMSO control in the assay on αSMA (IPF-3 patient fibroblasts) and 54.23 % of DMSO control in the assay with αSMA (IPF-4 patient fibroblasts). Moreover, the “Nuclear localization (% of total cells)” value is 75.68 % of total cells in the assay on YAP/TAZ (IPF-1 patient fibroblasts), 46.9 % of total cells in the assay on YAP/TAZ (IPF-2 patient fibroblasts), 64.79 % of total cells in the assay with YAP/TAZ (IPF-3 patient fibroblasts) and 76.24 % of total cells in the assay on YAP/TAZ (IPF-4 patient fibroblasts).
On to `CC(C)C[C@H]1C(=O)N2CCC[C@H]2[C@]2(O)O[C@](NC(=O)[C@@H]3C=C4c5cccc6[nH]c(Br)c(c56)C[C@H]4N(C)C3)(C(C)C)C(=O)N12` [Bromocriptine mesylate, Bromocriptine], for which the “Nuclear localization (% of total cells)” value is on record as 73.03 % of total cells with YAP/TAZ (IPF-1 patient fibroblasts), 52.81 % of total cells with YAP/TAZ (IPF-2 patient fibroblasts), 64.09 % of total cells in the assay on YAP/TAZ (IPF-3 patient fibroblasts) and 64.6 % of total cells with YAP/TAZ (IPF-4 patient fibroblasts).
`CN1Cc2ccccc2[C@@H]2c3cccc4[nH]cc(c34)C[C@H]21` [CY 208-243]: the “αSMA intensity (% of DMSO control)” value in the assay with αSMA (IPF-1 patient fibroblasts) is reported as 21.01 % of DMSO control; in the assay on αSMA (IPF-2 patient fibroblasts), 2.28 % of DMSO control; in the assay on αSMA (IPF-3 patient fibroblasts), 2.611 % of DMSO control; with αSMA (IPF-4 patient fibroblasts) it was 9.643 % of DMSO control. Besides, the “Nuclear localization (% of total cells)” value in the assay on YAP/TAZ (IPF-1 patient fibroblasts) is recorded as 20.52 % of total cells; in the assay with YAP/TAZ (IPF-2 patient fibroblasts), 39.79 % of total cells; with YAP/TAZ (IPF-3 patient fibroblasts) it was 41.17 % of total cells; in the assay with YAP/TAZ (IPF-4 patient fibroblasts), 19.82 % of total cells.
Turning to `C=CCN1C[C@H](C(=O)N(CCCN(C)C)C(=O)NCC)C[C@@H]2c3cccc4[nH]cc(c34)C[C@H]21` [Cabergoline], the “Nuclear localization (% of total cells)” value was 57.02 % of total cells in the assay with YAP/TAZ (IPF-1 patient fibroblasts), 57.41 % of total cells in the assay with YAP/TAZ (IPF-2 patient fibroblasts), 45.95 % of total cells with YAP/TAZ (IPF-3 patient fibroblasts) and 68.69 % of total cells with YAP/TAZ (IPF-4 patient fibroblasts).
In the same order, the values of `CN1C[C@@H](NS(=O)(=O)N(C)C)C[C@@H]2c3cccc4c3c(cn4C)C[C@H]21` [Mesulergine•HCl, Mesulergine] are 37.81 % of total cells, 45.14 % of total cells, 78.625 % of total cells and 45.14 % of total cells.
On the same counts, the results for `CCCN1C[C@H](CSC)C[C@@H]2c3cccc4[nH]cc(c34)C[C@H]21` [Pergolide mesylate, Pergolide] are 82.49 % of total cells, 69.37 % of total cells, 70.67 % of total cells and 65.58 % of total cells.
In the same order, the values of `c1cnc(N2CCN(Cc3ccc4c(c3)OCO4)CC2)nc1` [Piribedil•2HCl, Piribedil] are 61.58 % of total cells, 85.76 % of total cells, 59.05 % of total cells and 59.64 % of total cells.
`CCCN[C@H]1CCc2nc(N)sc2C1` [Pramipexole Dihydrochloride Monohydrate, Pramipexole]: the “Nuclear localization (% of total cells)” value is recorded as 64.92 % of total cells in the assay on YAP/TAZ (IPF-1 patient fibroblasts), 47.65 % of total cells in the assay on YAP/TAZ (IPF-2 patient fibroblasts), 65.5 % of total cells with YAP/TAZ (IPF-3 patient fibroblasts) and 58.97 % of total cells with YAP/TAZ (IPF-4 patient fibroblasts).
On the same counts, the results for `Oc1cc2c(cc1O)[C@@H](c1ccccc1)CNCC2` [SKF 38393•HBr, SKF 38393] are 69.5873 % of total cells, 47.375 % of total cells, 61.33 % of total cells and 35.79 % of total cells.
